Source: ChEMBL document CHEMBL1212921, “Design, synthesis, enzyme-inhibitory activity, and effect on human cancer cells of a novel series of jumonji domain-containing protein 2 histone demethylase inhibitors” (J Med Chem, 2010)
The source made the active and inactive calls. The rule behind the calls is not given here.

Columns and labels:
HCT-116 = test: Cytotoxicity against human HCT116 cells at 30 uM after 72 hrs by Alamar blue assay; type: functional, cell-based
PC-3 = test: Cytotoxicity against human PC3 cells at 30 uM after 72 hrs by Alamar blue assay; type: functional, cell-based
LNCaP [1] = test: Cytotoxicity against human LNCAP cells expressing JMJD2C at 100 uM after 72 hrs by Alamar blue assay; type: functional, cell-based
LNCaP [2] = test: Cytotoxicity against human LNCAP cells expressing JMJD2C at 30 uM after 72 hrs by Alamar blue assay; type: functional, cell-based
[3] = biological target: T1, Lysine-specific demethylase 4C (Homo sapiens, UniProt Q9H3R0); test: Inhibition of recombinant His-tagged JMJD2C expressed in Escherichia coli Rosetta 2 (DE3) pLysS cells by formaldehyde dehydrogenase-coupled assay
T1 sequence (Q9H3R0 whole entry): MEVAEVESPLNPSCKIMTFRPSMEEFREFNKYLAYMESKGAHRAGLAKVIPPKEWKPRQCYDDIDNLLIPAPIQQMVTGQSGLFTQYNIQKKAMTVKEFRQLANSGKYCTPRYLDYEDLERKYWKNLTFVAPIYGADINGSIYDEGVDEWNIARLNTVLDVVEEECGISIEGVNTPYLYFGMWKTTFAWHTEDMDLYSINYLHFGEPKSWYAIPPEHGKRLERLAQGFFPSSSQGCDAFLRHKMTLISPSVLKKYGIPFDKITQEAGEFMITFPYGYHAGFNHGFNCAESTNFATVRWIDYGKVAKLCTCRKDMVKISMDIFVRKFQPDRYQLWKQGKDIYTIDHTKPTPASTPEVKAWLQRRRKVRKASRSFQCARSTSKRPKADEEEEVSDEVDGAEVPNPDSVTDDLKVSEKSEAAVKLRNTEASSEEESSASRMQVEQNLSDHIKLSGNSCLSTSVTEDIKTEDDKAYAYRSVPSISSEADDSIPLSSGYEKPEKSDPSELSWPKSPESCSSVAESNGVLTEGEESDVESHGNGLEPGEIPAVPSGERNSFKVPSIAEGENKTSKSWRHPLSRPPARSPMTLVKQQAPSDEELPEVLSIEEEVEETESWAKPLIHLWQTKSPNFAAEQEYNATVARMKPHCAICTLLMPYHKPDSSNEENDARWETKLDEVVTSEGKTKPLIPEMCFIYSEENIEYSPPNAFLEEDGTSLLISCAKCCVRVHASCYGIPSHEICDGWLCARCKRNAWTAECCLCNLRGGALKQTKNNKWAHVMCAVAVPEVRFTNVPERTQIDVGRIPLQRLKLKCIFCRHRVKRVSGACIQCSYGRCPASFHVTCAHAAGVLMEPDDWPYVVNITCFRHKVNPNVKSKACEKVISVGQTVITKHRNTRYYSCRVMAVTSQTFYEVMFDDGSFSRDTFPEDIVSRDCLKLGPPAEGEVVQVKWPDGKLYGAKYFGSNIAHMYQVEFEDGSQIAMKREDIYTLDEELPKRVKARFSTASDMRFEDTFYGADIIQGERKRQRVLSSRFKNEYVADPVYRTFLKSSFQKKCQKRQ

[4] = biological target: T2, Lysine-specific demethylase 4A (Homo sapiens, UniProt O75164); test: Inhibition of recombinant His-tagged JMJD2A expressed in Escherichia coli Rosetta 2 (DE3) pLysS cells by formaldehyde dehydrogenase-coupled assay
T2 sequence (O75164 whole entry): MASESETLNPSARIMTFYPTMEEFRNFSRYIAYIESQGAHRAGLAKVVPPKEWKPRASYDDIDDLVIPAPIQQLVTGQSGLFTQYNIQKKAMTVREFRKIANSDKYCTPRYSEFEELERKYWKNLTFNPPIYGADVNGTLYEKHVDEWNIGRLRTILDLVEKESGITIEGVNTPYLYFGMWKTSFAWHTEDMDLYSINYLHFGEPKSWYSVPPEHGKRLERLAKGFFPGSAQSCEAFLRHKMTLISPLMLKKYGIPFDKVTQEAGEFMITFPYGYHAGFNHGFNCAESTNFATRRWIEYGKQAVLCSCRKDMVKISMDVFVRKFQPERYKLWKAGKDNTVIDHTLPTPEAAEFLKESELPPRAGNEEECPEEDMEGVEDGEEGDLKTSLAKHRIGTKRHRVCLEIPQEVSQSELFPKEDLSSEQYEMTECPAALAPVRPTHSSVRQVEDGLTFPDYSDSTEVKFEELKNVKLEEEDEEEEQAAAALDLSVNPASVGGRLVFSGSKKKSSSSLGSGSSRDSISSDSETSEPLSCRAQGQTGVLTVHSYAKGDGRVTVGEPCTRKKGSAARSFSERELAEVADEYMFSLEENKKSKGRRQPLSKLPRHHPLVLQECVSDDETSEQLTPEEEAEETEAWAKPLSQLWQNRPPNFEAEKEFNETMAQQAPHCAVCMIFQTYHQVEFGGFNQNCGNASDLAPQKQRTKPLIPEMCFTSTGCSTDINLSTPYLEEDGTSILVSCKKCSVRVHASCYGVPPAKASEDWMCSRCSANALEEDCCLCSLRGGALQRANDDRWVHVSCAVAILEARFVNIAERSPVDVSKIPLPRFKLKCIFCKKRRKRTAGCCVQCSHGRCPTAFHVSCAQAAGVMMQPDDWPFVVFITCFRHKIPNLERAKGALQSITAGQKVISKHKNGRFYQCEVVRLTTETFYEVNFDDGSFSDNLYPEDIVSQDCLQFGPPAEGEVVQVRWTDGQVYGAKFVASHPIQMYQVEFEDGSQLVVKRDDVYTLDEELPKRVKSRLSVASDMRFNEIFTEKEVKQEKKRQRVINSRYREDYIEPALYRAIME

Egl nine homolog 1 = Egl nine homolog 1 (Homo sapiens, UniProt Q9GZT9); test: Inhibition of human recombinant PHD2 expressed in Sf9 cells by time-resolved fluorescence assay
Prolyl hydroxylase EGLN2 = Prolyl hydroxylase EGLN2 (Homo sapiens, UniProt Q96KS0); test: Inhibition of human recombinant PHD1 expressed in Sf9 cells by time-resolved fluorescence assay
KYSE-150 = test: Cytotoxicity against human KYSE-150 cells at 30 uM after 72 hrs by Alamar blue assay; type: functional, cell-based
LNCaP [5] = test: Cytotoxicity against human LNCAP cells expressing JMJD2C after 72 hrs by Alamar blue assay; type: functional

Sequence of Egl nine homolog 1 (Q9GZT9 whole entry): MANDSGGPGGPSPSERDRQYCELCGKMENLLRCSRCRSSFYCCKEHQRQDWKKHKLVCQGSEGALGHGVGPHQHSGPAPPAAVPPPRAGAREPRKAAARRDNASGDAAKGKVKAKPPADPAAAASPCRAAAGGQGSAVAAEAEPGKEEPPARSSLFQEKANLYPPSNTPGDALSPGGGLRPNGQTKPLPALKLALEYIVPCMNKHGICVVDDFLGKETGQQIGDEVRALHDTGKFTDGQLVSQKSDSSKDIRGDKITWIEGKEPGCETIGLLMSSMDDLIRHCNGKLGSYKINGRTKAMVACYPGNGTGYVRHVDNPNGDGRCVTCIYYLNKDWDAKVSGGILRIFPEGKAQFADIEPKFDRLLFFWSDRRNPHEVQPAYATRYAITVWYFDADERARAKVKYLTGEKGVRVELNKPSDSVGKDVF
Sequence of Prolyl hydroxylase EGLN2 (Q96KS0 whole entry): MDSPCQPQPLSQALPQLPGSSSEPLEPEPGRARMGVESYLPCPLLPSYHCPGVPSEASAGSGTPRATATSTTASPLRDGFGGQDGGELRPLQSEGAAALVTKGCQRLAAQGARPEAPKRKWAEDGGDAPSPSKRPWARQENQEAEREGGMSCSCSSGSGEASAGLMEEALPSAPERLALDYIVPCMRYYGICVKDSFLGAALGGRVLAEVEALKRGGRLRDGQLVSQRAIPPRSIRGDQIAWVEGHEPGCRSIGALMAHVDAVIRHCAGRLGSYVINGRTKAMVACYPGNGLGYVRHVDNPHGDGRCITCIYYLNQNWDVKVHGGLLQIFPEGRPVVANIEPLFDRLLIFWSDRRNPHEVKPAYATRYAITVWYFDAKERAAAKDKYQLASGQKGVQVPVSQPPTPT

## COC(=O)c1ccnc(C(=O)OC)c1
HCT-116
  Activity: inactive
PC-3
  Activity: inactive
LNCaP [1]
  Activity: inactive
LNCaP [2]
  Activity: inactive

## CC(=O)N(O)CCC(=O)O
[3]
  IC50: 34 µM
[4]
  IC50: 14 µM
Egl nine homolog 1
  IC50: > 100 µM
Prolyl hydroxylase EGLN2; read-out: IC50
  IC50: > 100 µM

## CN(C)CCCCCCCC(=O)N(O)CCC(=O)O
[3]
  IC50: 1.5 µM
[4]
  IC50: 6 µM
Egl nine homolog 1
  IC50: > 100 µM
Prolyl hydroxylase EGLN2; read-out: IC50
  IC50: > 100 µM

## CN(C)CCCCCCCCC(=O)N(O)CCC(=O)O
[3]
  IC50: 1 µM
[4]
  IC50: 3 µM
Egl nine homolog 1
  IC50: > 100 µM
LNCaP [1]
  Activity: inactive
Prolyl hydroxylase EGLN2; read-out: IC50
  IC50: > 100 µM
LNCaP [2]
  Activity: inactive

## COC(=O)CCN(O)C(=O)CCCCCCCCN(C)C
HCT-116
  Activity: inactive
PC-3
  Activity: inactive
KYSE-150
  Activity: inactive
LNCaP [1]
  Activity: inactive
LNCaP [2]
  Activity: inactive

## CCCCN(C)CCCCCCCCC(=O)N(O)CCC(=O)O
[4]
  IC50: 3.2 µM
Egl nine homolog 1
  IC50: > 100 µM
Prolyl hydroxylase EGLN2; read-out: IC50
  IC50: > 100 µM

## O=C(O)CNC(=O)C(=O)O [N-OXALYLGLYCINE]
[3]
  IC50: 500 µM
[4]
  IC50: 250 µM
Prolyl hydroxylase EGLN2; read-out: IC50
  IC50: 2.1 µM

## CNCCCCCCCCC(=O)N(O)CCC(=O)O
[3]
  IC50: 1.7 µM
[4]
  IC50: 4.4 µM

## CN(C)CCCCCCCCN(O)C(=O)CCC(=O)O
[3]
  IC50: 2 µM
[4]
  IC50: 8.1 µM
Egl nine homolog 1
  IC50: > 100 µM
Prolyl hydroxylase EGLN2; read-out: IC50
  IC50: > 100 µM

## CN(C)CCCCCCCCCCC(=O)N(O)CCC(=O)O
[3]
  IC50: 5.2 µM
[4]
  IC50: 11 µM

## CN(C)CCCCCCCCCC(=O)N(O)CCC(=O)O
[3]
  IC50: 1.6 µM
[4]
  IC50: 5.5 µM
Egl nine homolog 1
  IC50: > 100 µM
Prolyl hydroxylase EGLN2; read-out: IC50
  IC50: > 100 µM

## CN(CCCCCCCCC(=O)N(O)CCC(=O)O)Cc1ccccc1
[3]
  IC50: 1.3 µM
[4]
  IC50: 2 µM

## CC(C)CCCCCC(=O)N(O)CCC(=O)O
[3]
  IC50: 74 µM
[4]
  IC50: 120 µM

## CN(C)CCCCCC(=O)N(O)CCC(=O)O
[3]
  IC50: 10 µM
[4]
  IC50: 17 µM

## CN(C)CCCCCCC(=O)N(O)CCC(=O)O
[3]
  IC50: 2.7 µM
[4]
  IC50: 8.7 µM

## O=C(O)c1ccnc(C(=O)O)c1
Prolyl hydroxylase EGLN2
  IC50: 1.5 µM

## N[C@@H]1C[C@H]1c1ccc(OCC[C@H](NC(=O)c2ccccc2)C(=O)NCc2ccccc2)cc1
LNCaP [5]
  GI50: 36 µM

## CN(C)CCCCCCCCCCCC(=O)N(O)CCC(=O)O
[3]
  IC50: 8.8 µM
[4]
  IC50: 22 µM
